{"source": "patent US20060240450A1", "about": "“Genetic analysis for stratification of cancer risk” (priority 2001, published 2006)", "origin": "cited, not measured here", "tested_on": "uterus and breast tissue", "details": "preliminary clinical data (through 30 months)", "note": "Counter-ions that a name gives are not always drawn."}
{"smiles": "O=C(c1ccc(OCCN2CCCCC2)cc1)c1c(-c2ccc(O)cc2)sc2cc(O)ccc12", "note": "[Raloxifene HCl, methanone, [6-hydroxy-2-(4-hydroxyphenyl)benzo[b]thien-3-yl]-[4-[2-(1-piperidinyl)ethoxy]phenyl]-hydrochloride]", "values": [{"measurement": "estrogen-like effects on uterus and breast tissue", "result": "lacks estrogen-like effects"}]}
